Measured values published in patent US11312722B2, “Hsp90 inhibitors and uses thereof” (TRUSTEES OF BOSTON UNIVERSITY, priority 2019, dated 2022).
≈ marks a conversion by molar mass, not a printed value. Read-outs that look alike come from different tables or passages of the source.

Columns and labels:
[1] = target: Hsp90 (C. albicans whole cell lysate) (Candida albicans (strain SC5314 / ATCC MYA-2876) (Yeast), UniProt P46598); experiment: biochemical; assay type: binding; settings: for C. alb Active (biochemical): Yes/No call; for EC50: read-out: C. alb EC50
Summary of the method: (§1)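 In this fluorescence polarization competition assay, compound titrations in buffer with 0.1 mg/mL bovine gamma globulin were mixed with fungal whole-cell lysate spiked with 0.1 nM Cy3-geldanamycin probe. Plates were incubated 4.5 h at room temperature. EC50 came from 4-parameter fits of probe displacement, normalized to GdA in the same lysate.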

[2] = target: T1, C. neoformans Hsp90 NBD (Cryptococcus neoformans, UniProt J9VVA4); experiment: biochemical; assay type: binding; settings: SPR, 25° C., read-out: Biacore KD
T1 sequence (J9VVA4 1-699): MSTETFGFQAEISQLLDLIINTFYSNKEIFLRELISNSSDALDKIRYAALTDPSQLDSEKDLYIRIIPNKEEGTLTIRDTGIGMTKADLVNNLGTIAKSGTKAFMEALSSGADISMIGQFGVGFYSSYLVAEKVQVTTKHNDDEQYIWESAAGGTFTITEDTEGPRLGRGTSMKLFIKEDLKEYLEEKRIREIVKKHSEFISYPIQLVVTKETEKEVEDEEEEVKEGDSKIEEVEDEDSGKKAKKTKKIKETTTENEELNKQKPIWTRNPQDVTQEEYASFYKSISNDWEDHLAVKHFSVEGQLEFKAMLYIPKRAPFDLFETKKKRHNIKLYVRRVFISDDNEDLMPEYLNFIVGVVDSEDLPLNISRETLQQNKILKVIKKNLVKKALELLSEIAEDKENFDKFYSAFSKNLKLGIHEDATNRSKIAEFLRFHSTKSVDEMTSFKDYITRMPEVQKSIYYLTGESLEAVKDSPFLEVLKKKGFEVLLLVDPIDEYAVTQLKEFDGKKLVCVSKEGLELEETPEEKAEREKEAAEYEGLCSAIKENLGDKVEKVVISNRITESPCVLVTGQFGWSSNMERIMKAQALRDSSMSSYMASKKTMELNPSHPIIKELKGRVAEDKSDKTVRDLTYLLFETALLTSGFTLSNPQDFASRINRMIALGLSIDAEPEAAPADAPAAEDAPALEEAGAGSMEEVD
Procedure: SPR assays. For SPR experiments, Hsp90 NBD expression constructs were modified to encode a C-terminal AviTag™ for site-specific on-column biotinylation with a BirA biotin-ligase kit (Avidity LLC; BirA-500). SPR experiments were performed on a Biacore T200 instrument at 25° C. Biotinylated Hsp90 NBD was diluted to 40 μg/mL and immobilized on a streptavidin chip (Sensor Chip SA, GE Healthcare) at a density of 2000-2500 response units (RU) on the biosensor surface. […] Resulting sensorgrams were analyzed with a fit to a 1:1 binding model, using BIA evaluation software.

[3] = test system: C. neoformans (Strain H99); experiment: Antifungal sensitivity testing (MIC), C. neoformans H99; assay type: cell-based
[4] = mouse liver microsomes; for % remaining at 15 min (NADPH-free): NADPH-free control; for % remaining at 15 min / % remaining at 60 min: with NADPH
[5] = in vitro; settings: both, CD-1, mouse; for CLint scaled at 1 μM: liver microsomes; for half-life: microsomes
[6] = target: T1, C. neoformans Hsp90 NBD; experiment: Protein thermal shift assay, C. neoformans Hsp90 NBD; assay type: binding; settings: equimolar protein and ligand (10 μM)
Procedure: […]. Using recombinant proteins, assay-independent nanomolar inhibitory constants (Ki) were defined for these compounds. Binding of the compounds to their relevant NBD by thermal shift denaturation assays was also confirmed. Thermal shift assays were performed under saturating ligand conditions, i.e. equimolar concentrations (10 μM) of protein and ligand. As a result, they can provide only qualitative evidence of target binding, but not a quantitative measurement of ligand affinity. […] […]. C. neoformans or C. albicans Hsp90 NBD was combined with equimolar concentrations of the indicated bioactive inhibitors (10 μM) or DMSO control, in technical triplicates. The protein was heated from 25 to 98.6° C. at 0.2° C./5 s in the presence of Sypro Orange dye. All compounds induce an increase in melting temperature relative to the DMSO control, reported as ΔTm.
Protein thermal shift assays. Thermal melting curves were determined using a Protein Thermal Shift Kit (ThermoFisher #4462263), employing a CFX384 Real-Time PCR System (Bio-Rad, C1000 Touch Thermal Cycler). Reactions were performed in a final volume of 10 μL, and contained purified C. albicans or C. neoformans Hsp90 NBD diluted to 250 μg/mL in Buffer HBS-P (GE Healthcare Life Sciences, 0.01 M HEPES pH 7.4, 0.15 M NaCl, 0.005% v/v Surfactant P20) with 10 μM synthetic analog or DMSO control, and 1× Sypro Orange dye solution. Samples were prepared in triplicate in 384-well white plates (Bio-Rad; HSP3805). The instrument was set to melt curve, step 1 (25° C., 2 min) and step 2 (ramp to 98.6° C., increasing 0.2° C. per 5 s cycle). The inflection point of each curve is defined as the protein melting temperature (Tm). Temperature shift, ΔTm, was recorded as the difference between the Tm of the fungal Hsp90 NBD with compound minus Tm of the protein without compound.

[7] = target: Hsp90 (C. neoformans whole cell lysate) (Cryptococcus neoformans, UniProt J9VVA4); assay type: binding; settings: read-out: C. neo EC50
Chain of Hsp90 (C. neoformans whole cell lysate) (J9VVA4 1-699): as above
Procedure: All analogs were assessed for Hsp90 binding affinity using a fluorescence polarization (FP)-based equilibrium competition assay in fungal and human whole cell lysates. […] Using lysates, the relative potency and selectivity for fungal Hsp90 was measured versus the entire ensemble of human Hsp90 isoforms in microplate format using small amounts of test materials. […] Thermal shift assays were performed under saturating ligand conditions, i.e. equimolar concentrations (10 μM) of protein and ligand. As a result, they provided qualitative evidence of target binding, but not a quantitative measurement of ligand affinity. For quantitation, a ligand dissociation constant (Ki) for key compounds was also determined using purified NBDs in FP assays and KD measurements were made by surface plasmon resonance (SPR) using a Biacore instrument. Finally, all analogs were assessed for whole cell antifungal activity against the pathogens C. albicans and C. neoformans.
FP assays. Whole cell lysates were prepared for FP assays as described previously. Total protein concentration of human and yeast lysates was determined by Bradford assay. […] Serial dilutions of test Hsp90 inhibitors were then assayed under these same conditions to monitor loss of fluorescence polarization as an indicator of probe displacement from Hsp90. […] Titrations of test compound in 25 μL of binding buffer (supplemented with 0.1 mg/mL bovine gamma globulin), were mixed with an equal volume of freshly prepared whole-cell lysate spiked with Cy3-GdA (0.1 nM). Plates were incubated at room temperature for 4.5 h to achieve equilibrium binding for the geldanamycin-based probe. […] Non-linear 4-parameter curve fitting of raw displacement data was performed in GraphPad Prism 5.0 to determine EC50 values as a measure of relative Hsp90-binding affinity. Results were normalized to the value determined for GdA in lysate of each cell type.
Statistical methods. […] In calculating the error of selectivity determinations, the fractional error of measurements in each species was summed to yield a composite error for the derived ratio.

[8] = test system: Hsp90 (C. albicans whole cell lysate); experiment: biochemical; assay type: binding; settings: for C. alb Selective: Yes/No call
Summary of the method: as §1

[9] = target: T1, C. neoformans Hsp90 NBD; experiment: FP assay with purified C. neoformans Hsp90 NBD (Ki); assay type: binding; settings: C. neo FS calculated using Ki
Procedure: Thermal shift assays were performed under saturating ligand conditions, i.e. equimolar concentrations (10 μM) of protein and ligand. As a result, they can provide only qualitative evidence of target binding, but not a quantitative measurement of ligand affinity. […] Titrations of the Cy3-GdA probe and purified proteins were evaluated to define assay conditions and to determine the dissociation constant Kd of the probe for each NBD. Serial dilutions of test Hsp90 inhibitors were then assayed in triplicate wells under these conditions. Non-linear 4-parameter curve fitting of raw displacement data was performed in GraphPad Prism 5.0 to determine IC50 values. Finally, inhibitory constants (Ki) were calculated as described previously.
NBD expression and purification. Recombinant Hsp90 NBDs were expressed and purified as previously described. Stock protein solutions in 50% glycerol were stored at −20° C. until dilution into relevant buffers and use for FP and thermal shift assays.

[10] = Cryptococcus neoformans, read-out: C. neo MIC80
[11] = Cryptococcus neoformans, read-out: C. neo MIC90
[12] = Cryptococcus neoformans; read-out: C. neo MIC80
[13] = Cryptococcus neoformans; read-out: C. neo MIC90

| Compound | C. alb Active (biochemical) [1] | Kd [2] [nM] | MIC80 [3, 10] [µM] | MIC90 [3, 11] [µM] | % remaining at 15 min (NADPH-free) [4] [%] | % remaining at 15 min [4] [%] | % remaining at 60 min [4] [%] | CLint scaled at 1 μM [5] [mL/min/kg] | C. neoformans NBD ΔTm [6] [°C] | further results |
| --- | --- | --- | --- | --- | --- | --- | --- | --- | --- | --- |
| COc1cccc(-c2cc(Nc3cc(O)cc(O)c3C(=O)N3Cc4ccccc4C3)n(C)n2)c1 [Compound 112, 4-(2,3-Dihydro-1H-isoindole-2-carbonyl)-5-((3-(3-methoxyphenyl)-1-methyl-1H-pyrazol-5-yl)amino)benzene-1,3-diol] | Yes | 74 | > 25 | > 25 | 99.3 | 3.7 | 0 | 1740 |  | half-life [5]: 3.2 min |
| COc1cccc(-c2cc(Nc3cc(O)cc(O)c3C(=O)N3Cc4cccnc4C3)n(C)n2)c1 [Compound 113, 5-((3-(3-Methoxyphenyl)-1-methyl-1H-pyrazol-5-yl)amino)-4-(5H,6H,7H-pyrrolo[3,4-b]pyridine-6-carbonyl)benzene-1,3-diol] | Yes | 67 | > 25 | > 25 | 109.2 | 4.9 | 0 | 1590 |  | half-life [5]: 3.4 min |
| COc1ccc(Cn2nc(-c3ccccc3)cc2Nc2cc(O)cc(O)c2C(=O)N2Cc3ccc(F)cc3C2)cc1 [Compound 29, 4-(5-Fluoro-2,3-dihydro-1H-isoindole-2-carbonyl)-5-((1-((4-methoxyphenyl)methyl)-3-phenyl-1H-pyrazol-5-yl)amino)benzene-1,3-diol] |  |  |  |  |  |  |  |  | 14 |  |
| COc1cccc(-c2cc(Nc3cc(O)cc(O)c3C(=O)N3Cc4cn[nH]c4C3)n(C)n2)c1 [Compound 114, 5-((3-(3-Methoxyphenyl)-1-methyl-1H-pyrazol-5-yl)amino)-4-(1H,4H,5H,6H-pyrrolo[3,4-c]pyrazole-5-carbonyl)benzene-1,3-diol] | Yes | 22 | > 25 | > 25 | 108.2 | 40.1 | 7.0 | 318 |  |  |
| COc1ccc(Cn2nc(-c3ccccc3)cc2Nc2cc(O)cc(O)c2C(=O)N2Cc3cccc(F)c3C2)cc1 [Compound 27, 4-(4-Fluoro-2,3-dihydro-1H-isoindole-2-carbonyl)-5-((1-((4-methoxyphenyl)methyl)-3-phenyl-1H-pyrazol-5-yl)amino)benzene-1,3-diol] |  |  |  |  |  |  |  |  | 12 |  |
| Cn1nc(-c2ccc(OC(F)(F)F)cc2)cc1Nc1cc(O)cc(O)c1C(=O)N1Cc2cccnc2C1 [Compound 131, 5-((1-Methyl-3-(4-(trifluoromethoxy)phenyl)-1H-pyrazol-5-yl)amino)-4-(5H,6H,7H-pyrrolo[3,4-b]pyridine-6-carbonyl)benzene-1,3-diol] |  | 380 | > 25 | > 25 | 104.1 | 35.5 | 3.9 | 387 |  | C. neo Active (cells) ([3]; Yes/No call): No |
| Cn1nc(-c2ccc(OC(F)(F)F)cc2)cc1Nc1cc(O)cc(O)c1C(=O)N1Cc2cn[nH]c2C1 [Compound 132, 5-((1-Methyl-3-(4-(trifluoromethoxy)phenyl)-1H-pyrazol-5-yl)amino)-4-(1H,4H,5H,6H-pyrrolo[3,4-c]pyrazole-5-carbonyl)benzene-1,3-diol] |  | 214 | > 25 | > 25 | 71.7 | 63.0 | 20.6 | 176 |  | C. neo Active (cells) ([3]; Yes/No call): No |
| Cn1nc(-c2ccccc2)cc1Nc1cc(O)cc(O)c1C(=O)N1Cc2ccncc2C1 [BUCMD00467] | Yes |  |  |  |  |  |  |  |  | EC50 [7]: 151 nM; EC50 [1]: 1040 nM; C. alb Selectivity (FS) [8]: 0.4; C. alb Selective [8]: No; C. neo Selectivity (FS) [9]: 57.3; C. neo MIC80 [3]: >25 µM; C. neo MIC90 [3]: >25 µM |
| Cc1ccccc1-c1cc(Nc2cc(O)cc(O)c2C(=O)N2Cc3ccccc3C2)n(C)n1 [Compound 106, 4-(2,3-Dihydro-1H-isoindole-2-carbonyl)-5-((1-methyl-3-(2-methylphenyl)-1H-pyrazol-5-yl)amino)benzene-1,3-diol] | Yes |  |  |  |  |  |  |  | 12 | MIC ([3]; Cryptococcus neoformans; C. neoformans H99, RPMI medium, 37° C., 48 h, resazurin): < 10 µM; MIC80 [3, 12]: < 25 µM; MIC90 [3, 13]: 25 µM (≈ 11 µg/mL) |
| COc1ccccc1-c1cc(Nc2cc(O)cc(O)c2C(=O)N2CC[C@H](OC)C2)n(C)n1 [ACSM01351] | Yes |  |  |  |  |  |  |  |  | EC50 [7]: 244 nM; EC50 [1]: 628 nM; C. alb Selectivity (FS) [8]: 4.6; C. alb Selective [8]: No; C. neo Selectivity (FS) [9]: 98; C. neo MIC80 [3]: >25 µM; C. neo MIC90 [3]: >25 µM |
| Cn1nc(-c2ccccc2)cc1Nc1cc(O)cc(O)c1C(=O)N1Cc2ccccc2C1 [Compound 91, 4-(2,3-Dihydro-1H-isoindole-2-carbonyl)-5-((1-methyl-3-phenyl-1H-pyrazol-5-yl)amino]benzene-1,3-diol] | Yes |  |  |  |  |  |  |  | 11 | MIC80 [3, 12]: > 25 µM; MIC90 [3, 13]: > 25 µM |
